Results on 3 compounds are retold here after publication PMC4056445 (Journal of ethnopharmacology, 2011).

The structures appear in SMILES notation.

What is called IC50 is the midpoint of a concentration-inhibition curve.

In one experiment the target is PDE5 (Mus musculus, UniProt Q8CG03). Put plainly: PDE5 inhibition, two-step radioactive [3H]cGMP assay. The following applies: for IC50 ratio PDE6/PDE5: pure compounds, selectivity on PDE5 over PDE6. It is filed as biochemical.
A further experiment has as its target T1, PDE6 (Gallus gallus, UniProt P52731).
T1 sequence (P52731 1-859 limits assumed): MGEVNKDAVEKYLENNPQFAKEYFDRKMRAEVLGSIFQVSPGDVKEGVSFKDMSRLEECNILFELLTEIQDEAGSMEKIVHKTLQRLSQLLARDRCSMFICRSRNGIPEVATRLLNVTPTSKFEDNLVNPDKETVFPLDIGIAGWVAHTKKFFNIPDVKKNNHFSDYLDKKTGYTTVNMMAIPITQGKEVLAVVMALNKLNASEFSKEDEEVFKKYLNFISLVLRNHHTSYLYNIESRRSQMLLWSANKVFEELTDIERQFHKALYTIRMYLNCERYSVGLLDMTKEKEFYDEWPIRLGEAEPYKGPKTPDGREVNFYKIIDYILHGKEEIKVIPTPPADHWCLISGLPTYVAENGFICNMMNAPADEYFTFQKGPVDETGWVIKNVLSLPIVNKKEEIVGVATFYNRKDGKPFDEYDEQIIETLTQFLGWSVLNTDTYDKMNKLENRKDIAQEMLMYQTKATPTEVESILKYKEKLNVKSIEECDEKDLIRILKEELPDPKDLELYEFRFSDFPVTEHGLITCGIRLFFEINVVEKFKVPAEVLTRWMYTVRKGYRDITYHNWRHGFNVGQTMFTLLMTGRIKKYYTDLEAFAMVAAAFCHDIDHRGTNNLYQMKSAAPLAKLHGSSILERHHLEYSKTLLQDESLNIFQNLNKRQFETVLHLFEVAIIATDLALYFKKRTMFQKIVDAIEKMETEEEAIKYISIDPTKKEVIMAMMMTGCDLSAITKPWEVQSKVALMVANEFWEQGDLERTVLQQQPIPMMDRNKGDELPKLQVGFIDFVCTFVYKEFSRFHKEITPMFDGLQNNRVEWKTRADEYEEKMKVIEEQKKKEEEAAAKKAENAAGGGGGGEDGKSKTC
The experiment in a line: PDE6 inhibition, two-step radioactive [3H]cGMP assay. Format: biochemical, chicken.

For `COc1cc(OC)c2c(=O)cc(-c3ccccc3)oc2c1` [Compound 2, 5,7-dimethoxyflavone], the concentration for half-maximal inhibition (IC50) stood at 10.6 ± 2.09 µM on PDE5 and 39.5 ± 1 µM on PDE6. The “IC50 ratio PDE6/PDE5” value on PDE5 is given as 3.71. The inhibition at 10 µM at PDE5 (read-out: % Inhibitory activity at 10 μM PDE5, final concentration 10 μM, n = 3) was above 35%; at PDE6 (read-out: % Inhibitory activity at 10 μM PDE6, final concentration 10 μM, n = 3), above 35%.

Regarding `OCCN(CCO)c1nc(N2CCCCC2)c2nc(N(CCO)CCO)nc(N3CCCCC3)c2n1` [Dipyridamole, dipyridamole], the results for the IC50 at PDE5 and on PDE6 were 1.46 ± 0.81 µM and 0.231 ± 0.03 µM, respectively.

For the compound `CCCc1nn(C)c2c(=O)[nH]c(-c3cc(S(=O)(=O)N4CCN(C)CC4)ccc3OCC)nc12` [Sildenafil, sildenafil], at PDE5, the concentration for half-maximal inhibition (IC50) was 0.0068 µM and the “IC50 ratio PDE6/PDE5” value worked out at 4.85. The half-maximal inhibitory concentration (IC50) on PDE6 amounted to 0.033 ± 0.01 µM.
